Entries after “also recorded” stand apart in the source; their conditions may differ.
What was measured:
[1] = system: ileal lamina propria Th17 and Treg cells; experiment: SFB-dependent Th17 cells in mice fed bile acid diet; type: in vivo, mouse; conditions: 0.3% diet
Procedure: (§1) Data are shown as the mean±standard deviation by unpaired t-test with 2-tailed p-value.
(§2) Cells were then analyzed by flow cytometry.

[2] = system: fusion protein of RORγt and Gal4-DBD; experiment: RORγt luciferase reporter assay in HEK293 cells; type: cell-based, human; conditions: ML209 2 μM, bile acids 10 μM
Procedure: as §1
We next examined if 3-oxoLCA physically interacts with the RORγt protein in vitro. A microscale thermophoresis (MST) assay was performed with recombinant human RORγt ligand-binding domain (LBD). […] Next, we examined if 3-oxoLCA modulates the transcriptional activity of RORγt. We assayed the effect of the bile acids on firefly luciferase expression directed by a fusion protein of RORγt and Gal4-DBD (DNA-binding domain) in human embryonic kidney (HEK) 293 cells^14.

naïve CD4+ T cells = experiment: Cell proliferation assay (CFSE); type: cell-based, mouse; conditions: 3 days, vs DMSO
Procedure: Data are representative of two independent experiments (b, d).
Cell Proliferation Assay. Naïve CD4^+ T cells were labeled with 1 μM carboxyfluorescein succinimidyl ester (CFSE, BioLegend) and cultured for 3 days prior to FACS analysis.

[3] = system: lamina propria CD4+ T cells (Th17, Treg); experiment: Anti-CD3 injection gut inflammation model, bile acid diet; type: in vivo, mouse; conditions: 1% diet
Procedure: as §1, §2

[4] = system: colon lamina propria Th17 cells; experiment: Citrobacter rodentium infection of germ-free mice; type: in vivo, mouse; conditions: germ-free B6 mice, C. rodentium, 0.3% diet
Text: For the box plots (a, b), the three horizontal lines of the box represent the third quartile, median and first quartile, respectively from top to bottom. […] Mice were fed an autoclaved diet with or without 3-oxoLCA (0.3%) (n=9 mice/group).

[5] = system: naïve CD4+ T cells (Th17 differentiation, IL-17a); experiment: In vitro Th17 differentiation, IL-17a staining by flow cytometry; type: cell-based, mouse
Text: Our screen included both primary bile acids, synthesized by the host, and secondary bile acids, produced by bacterial modification of primary bile acids (FIG. 5). Naïve CD4^+ T cells were isolated from wild-type C57BL/6J (B6) mice and cultured with bile acids under Th17 differentiation conditions and, as a counter-screen, Treg differentiation conditions (FIG. 6).
In Vitro T Cell Culture. Naïve CD4^+ (CD62L^+ CD44^− CD25^− CD4^+) T cells were isolated from the spleens and the lymph nodes of mice of designated genotypes with FACS sorting. For certain experiments, naïve CD4^+ T cells were enriched using naïve CD4^+ T cell isolation kits (Miltenyi). Naïve CD4^+ T cells (40,000 cells) were cultured in a 96-well plate pre-coated with hamster IgG (MP Biomedicals) in T cell medium (RPMI, 10% fetal bovine serum, 25 mM glutamine, 55 μM 2-mercaptoethanol, 100 U/mL penicillin, […] streptomycin) supplemented with 0.25 μg/mL anti-CD3 (clone 145-2C11) and 1 μg/mL anti-CD28 (clone 37.51). For Th0 culture, T cells were cultured with the addition of 100 U/mL of IL-2 (PEPROTECH). For Th1 cell differentiation, T cells were cultured with the addition of 100 U/mL of IL-2, 10 μg/mL of anti-IL-4 (clone 11B11) and 10 ng/mL of IL-12 (PEPROTECH). For Th2 cell differentiation, T cells were cultured with the addition of 10 μg/mL of anti-IFNγ (clone XMG1.2) and 10 ng/mL of IL-4 (R&D Systems). For Th17 cell differentiation, T cells were cultured with the addition of 10 ng/mL of IL-6 (eBioscience) and 0.5 ng/mL of TGF-β (PEPROTECH). For Treg culture, T cells were cultured with the addition of 100 U/mL of IL-2 and various concentrations of TGF-β. […] Bile acids, retinoic acid (Sigma) or mitoQ (Focus Biomolecules), or mitoPQ (Sigma) were added either at 0 or 16 h time points. Compounds with low water solubility were sonicated before adding to the culture. Cells were harvested and assayed by flow cytometry on day 3. For ROS and mitochondrial membrane potential detection, cells cultured for 2 days were incubated with 5 μM of mitoSOX (ThermoFisher), 10 μM of DCFDA (Sigma) or 2 μM of JC-1 (ThermoFisher) for 30 min and assayed with flow cytometry.
(§3) Flow Cytometry. Cells harvested from in vitro culture or in vivo mice experiments were stimulated with 50 ng/mL PMA (Phorbol 12-myristate 13-acetate, Sigma) and 1 μM ionomycin (Sigma) in the presence of GolgiPlug (BD) for 4 h to determine cytokine expression. After stimulation, cells were stained with cell surface marker antibodies and LIVE/DEAD Fixable dye, Aqua, to exclude dead cells, fixed and permeabilized with a FoxP3/Transcription factor staining kit (eBioscience), followed by staining with cytokine- and/or transcription factor-specific antibodies. All flow cytometry analyses were performed on an LSR II flow cytometer (BD) and data were analyzed with FlowJo software (TreeStar).

CD4+ T cells = system: CD4+ T cells
Text: Representative FACS plots of CD4^+ T cells cultured for 3 days and stained intracellularly for FoxP3 (e). Quantification of FoxP3^+ and viable T cells after 3-day culture (f) (n=2/group). n, number of biologically independent samples. Data are representative of two independent experiments (b, d). Data in (c) are shown as the mean±standard deviation.
Naïve CD4^+ T cells were isolated from FoxP3-IRES-GFP mice. d, Flow cytometry of CD4^+ T cells stained intracellularly for FoxP3. Naïve CD4^+ T cells isolated from WT, CNS1, CNS2 or CNS3 knockout mice (n=3/group) were cultured with anti-CD3/28 and IL-2, LCA (20 μM), TGF-β (0.05 ng/ml) and additional retinoic acid (RA; 1 ng/ml). e and f, Flow cytometry (e) and its quantification (f) of CD4^+ T cells stained intracellularly for FoxP3. […] Data are representative of two independent experiments (c, d). Data are shown as the mean±standard deviation by unpaired t-test with 2-tailed p-value.
as §3

## C[C@H](CCC(=O)O)[C@H]1CC[C@H]2[C@@H]3CC[C@@H]4CC(=O)CC[C@]4(C)[C@H]3CC[C@]12C [3-oxoLCA, 3-oxolithocholic acid]
[1]; Jax-B6 mice gavaged with SFB, one week
  percentage of ileal Th17 cells: significantly reduced the percentage of ileal Th17 cells
[1]; Tac-B6 mice with pre-existing SFB, 7 days
  Th17 cell percentages: reduced levels of Th17 cell percentages
[1]; Tac-B6 mice, 7 days
  Treg percentages: did not affect Treg percentages
[2]
  RORγt reporter activity: significantly reduced the RORγt reporter activity
naïve CD4+ T cells
  cell proliferation: do not significantly affect cell proliferation; also recorded: did not affect cell proliferation
[3]
  Th17 cell levels after anti-CD3 injection: reduced Th17 cell levels
[4]
  Th17 cell induction in the colon: reduced Th17 cell induction in the colons of germ-free B6 mice infected with Citrobacter rodentium
[5]; 20 μM
  suppression of Th17 cells in VDR or FXR knockout cells: VDR and FXR also failed to contribute to the suppressive activities
[5]; bile acids 20 μM, 3 days, IL-6 and TGF-β
  Th17 cell differentiation (IL-17a): dose-dependent effects; also recorded: inhibited Th17 differentiation
CD4+ T cells
  cell viability: do not significantly affect cell proliferation, cell viability
